Measured values reported in the NIST ThermoML archive (doi:10.1016/j.fluid.2018.02.009).

Details: Liquid, Closed cell (Static) method

O=C=O [carbon dioxide]
Details | vapor or sublimation pressure [kPa]
213.22 K | 410.4
223.15 K | 681.8
243.13 K | 1426.3
263.13 K | 2646.7
273.22 K | 3491.3
283.15 K | 4502.3
299.22 K | 6595
